Experimental data: ChEMBL document CHEMBL1131921, “Diamino benzo[b]thiophene derivatives as a novel class of active site directed thrombin inhibitors: 3. Enhancing activity by imposing conformational restriction in the C-4" side chain” (Bioorg Med Chem Lett, 1999)

Target: Prothrombin (Homo sapiens) (UniProt P00734)
Assay: Binding affinity for human Prothrombin as apparent association constant (Kass)

Compound	K ass
C(#Cc1ccc(Cc2c(-c3ccc(OCCN4CCCC4)cc3)sc3ccccc23)cc1)CN1CCCC1	4.84e+06 l M-1
c1ccc2c(Cc3ccc(O[C@@H]4CCC[C@H]4N4CCCC4)cc3)c(-c3ccc(OCCN4CCCC4)cc3)sc2c1	2.74e+07 l M-1
C[C@@H](COc1ccc(Cc2c(-c3ccc(OCCN4CCCC4)cc3)sc3ccccc23)cc1)N1CCCC1	9.07e+06 l M-1
c1ccc2c(Cc3ccc(O[C@@H]4CCCC[C@H]4N4CCCC4)cc3)c(-c3ccc(OCCN4CCCC4)cc3)sc2c1	2.4e+07 l M-1
CC(C)(COc1ccc(Cc2c(-c3ccc(OCCN4CCCC4)cc3)sc3ccccc23)cc1)N1CCCC1	4.69e+06 l M-1
c1ccc2c(Cc3ccc(CCCN4CCCC4)cc3)c(-c3ccc(OCCN4CCCC4)cc3)sc2c1	6.7e+06 l M-1
CCC(COc1ccc(Cc2c(-c3ccc(OCCN4CCCC4)cc3)sc3ccccc23)cc1)N1CCCC1 (configuration not stated)	2.81e+07 l M-1
C(=C\c1ccc(Cc2c(-c3ccc(OCCN4CCCC4)cc3)sc3ccccc23)cc1)/CN1CCCC1 (stereo in doubt; trans)	1.32e+07 l M-1
CC(COc1ccc(Cc2c(-c3ccc(OCCN4CCCC4)cc3)sc3ccccc23)cc1)N1CCCC1 (configuration not stated)	7.34e+06 l M-1
C(=C\c1ccc(Cc2c(-c3ccc(OCCN4CCCC4)cc3)sc3ccccc23)cc1)/CN1CCCC1 (stereo in doubt; cis)	9.8e+06 l M-1
CCC(CN1CCCC1)Oc1ccc(Cc2c(-c3ccc(OCCN4CCCC4)cc3)sc3ccccc23)cc1 (configuration not stated)	1.23e+07 l M-1
C[C@H](COc1ccc(Cc2c(-c3ccc(OCCN4CCCC4)cc3)sc3ccccc23)cc1)N1CCCC1	4.17e+06 l M-1
